Test results from US20030208035A1, “Antifungal and/or antibacterial peptides, preparation methods, compositions containing same and methods of treating mammals and/or plants” (priority 2000, published 2003).
Bridges are numbered along the chain shown (N, C = ends). Where no end group is shown, it is not given here.

Columns and labels:
[1] = tested on: Candida albicans (IHEM 8060 strain); test: Candida albicans infected model, lethal in mice (disseminated candidiasis); assay type: in vivo; conditions: for mice alive on day 7 (out of 10): placebo 5 alive; for time of onset of the 1st death: placebo day 2.5; for effect on mouse survival relative to placebo treatment: 3.10^6 CFU, three i.v. injections, 10 mice of 15 g; for effect on mouse survival relative to placebo treatment / morbidity score up to post-infection day 5 / median mortality, post-infection day / delay of onset of the 1st death: 5 mg/kg; for morbidity score up to post-infection day 5: placebo 1/50; for median mortality, post-infection day: placebo day 4; for delay of onset of the 1st death: placebo first deaths 2.5 days
Description: Heliomycin and its analogues were tested for in vivo antifungal activity in a model infected with Candida albicans, lethal in mice. The pathogenic agent Candida albicans (IHEM 8060 strain) was inoculated by intravenous route (i.v.) at a dose of 2.5×10^6 CFU/mouse. the peptides were administered by i.v. route in 4 injections 6 h, 24 h, 48 h and 72 h after infection. Assessment criteria for activity were evaluation of survival and morbidity at 7 days. The morbidity scores, which take into account general state of health (condition of fur, mobility, hydration) were determined for each mouse with values ranging from 0 to 5 and defined below: 0=dead, 1=moribund, 2=very ill, 3=ill, 4=slightly ill, 5=healthy. The sum of the individual scores was calculated for each group, a score of 50 for a group of 10 mice meaning that all the mice were healthy.
Following a standard protocol, groups of 10 Swiss OF1 male mice weighing 12 g were infected via i.v. route with a dose of 2.5×10^6 CFU/mouse. Heliomycin and Ard1 were administered by i.v. route in 4 injections, 6 h, 24 h, 48 h and 72 h after infection. For each peptide, 2 doses were tested: 10 mg/kg and 30 mg/kg. A placebo group was injected with peptide solvent, 0.9% sodium chloride.
In this experiment, inoculation of the mice with 2.5.10^6 CFU/mouse was 50% lethal at day 5 in the group which received placebo treatment. The first deaths occurred on post-infection day 2.5 and median mortality occurred on post-infection day 5. On day 7, 5 mice were alive and the morbidity score 15/50.
In this experiment, inoculation of Swiss OF1 mice weighing 15 g with 3.10^6 CFU of Candida albicans induces 50% mortality on day 4 after infection in the group treated with the placebo. The first deaths occur 2.5 days after infection, and 100% of the mice were dead on day 5.5.
In this experiment, inoculation of the mice with 2.5.10^6 CFU/mouse was 50% lethal at day 5 and 100% at day 8 for mice in the placebo group. The first death occurred 3 days after infection. The morbidity score fell rapidly below 30/50 (25/50 at day 2.5).
The pEM35 peptide was administered at doses of 10 and 30 mg/kg/injection with 3 daily doses for 4 days (1 h, 5 h and 10 h post-infection on day 0; at 8 h, 14 h and 20 h on days 1, 2 and 3), i.e., daily doses totalling 30 and 90 mg/kg.

Alternaria brassicola = assay type: cell-based; conditions: 48 h
Description: (§1) 100 μl of peptide dilutions (concentration 50 with 0.097 mg/ml peptide) were deposited in microtitration plates.
(§2) After adding 100 μl of frozen spores with 10^4 spores/ml of A. brassicola and N. crassa (donated by Dr. Bullet, IBMC, Strasbourg) the test plates were incubated 48 h at 30° C.
(§3) Determination of minimal inhibiting concentrations (MIC) was made by observing well cover rate. The MIC was set at 50% well covering.

Neurospora crassa = assay type: cell-based; conditions: 48 h
Description: as §1, §2, §3

Cryptoccocus neoformans = assay type: cell-based; conditions: 72 h
Description: (§4) Candida yeasts (C. albicans, C. glabrata, C. dubliensis, C. tropicalis, C. kefyr, C. krusei and C. parapsilosis—donated by Dr. H. Koenig, Hôpital Civil, Strasbourg), fluconazole-resistant C. albicans (n^o245962, n^o2332, n^o246335 and n^o3552, donated by Drs. J.Meis and J. Mouton, University Hospital, Microbiology Department, Nijmegen, Netherlands), and Cryptoccocus neoformans (donated by Dr. H. Koenig, Hôpital Civil, Strasbourg) were seeded on Sabouraud-Cloramphenicol Agar slant gelose (Biomerieux) and left to incubate for 24 h at 30° C. (Candida sp.) and for 72 h at 37° C. (Cryptoccocus neoformans).
(§5) Some yeast colonies were placed in suspension in liquid Sabouraud medium (Biomerieux) to obtain a final concentration of 0.1 OD at 600 nm corresponding to 2.5.10^6 yeasts/ml.
(§6) The yeast suspension was adjusted to 5.10^3 yeast/ml in Sabouraud medium.
(§7) 100 μl of peptide dilutions (concentration of 50 with 0.097 μg/ml peptide) were deposited in microtitration plates. After adding […] of yeast suspension with 5.10^3 yeast/ml i.e. 500 yeasts, the test plates were incubated 24 h at 30° C. (Candida) under slow shaking or 72 h at 37° C. (Cryptoccocus).
(§8) Determination of minimal inhibiting concentrations (MIC) was made by measuring absorbency at 600 nm using a spectrophotometer-microtitration plate reader. The MIC score was set at a growth inhibition rate of 50%.

C. tropicalis = assay type: cell-based
Description: as §4, §5, §6, §7, §8

C. krusei = assay type: cell-based
Description: as §4, §5, §6, §7, §8

C. glabrata = assay type: cell-based
Description: as §4, §5, §6, §7, §8

C. kefyr = assay type: cell-based
Description: as §4, §5, §6, §7, §8

Aspergillus fumigatus = test: anti-Aspergillus fumigatus growth inhibition test in liquid medium (96-well microplates); assay type: cell-based; conditions: fold relative to Ard1
Description: The anti-Candida albicans and anti-Aspergillus fumigatus activities of the different analogues were assessed using a growth inhibition test in liquid medium made in 96-well microplates. The activity of the purified peptides was tested for different dilutions of each peptide and was compared with those of heliomycin and Ard1 quantified under the same conditions.
The spores of Aspergillus fumigatus were derived from a stock frozen at −80° C., containing 10^7 spores/ml in a 25% glycerol solution. After slow thawing at room temperature, the spores were placed in suspension in PDB culture medium (12 g Potato Dextrose Broth medium, per […] water). 10 μl of each sample were deposited in the wells of microtitration plates in the presence of 90 μl PDB culture medium supplemented with tetracycline (100 μg/ml) and cefotaxime (1 μg/ml) containing the spores (at a final concentration of 1000 spores/well). Control cultures were systematically made in which 10 μl of sample were replaced by 10 μl of sterile water. Media sterility was controlled by incubating 10 μl sterile water in the presence of 90 μl of medium. The samples were incubated at 37° C. for 24 h to 48 h in a humid atmosphere, and the antifungal activity was quantified by a score of 0 to 9 taking germination account; the size and morphology of the hyphs were determined under the binocular microscope. […].

DKLIGSCVWGAVNYTSNCNAECKRRGYKGGHCGSFANVNCWCQT (disulfide 7-32, 18-40, 22-42 (inferred)) [pEM31]
activity compared with Ard1 ([1]; FIGS. 4-5, 10 mg/kg): more active than Ard1
morbidity score maintained for 5 days ([1]; FIGS. 4-5, 10 mg/kg): higher than 40/50
mice alive on day 7 (out of 10) ([1]; FIGS. 4-5, 10 mg/kg): 8 mice
time of onset of the 1st death ([1]; FIGS. 4-5, 10 mg/kg): 5.5 days
effect on mouse survival relative to placebo treatment ([1]; FIGS. 6-7): does not significantly increase mouse survival
effectiveness in the candidiasis infected model ([1]; FIGS. 6-7, dose 5 mg/kg): not effective
MIC (Alternaria brassicola): >25 µg/mL
MIC (Neurospora crassa): <0.048 µg/mL
MIC (Cryptoccocus neoformans): 12.5 µg/mL
MIC (C. tropicalis): 6.25 µg/mL
MIC (C. krusei): 3.125 µg/mL
MIC (C. glabrata): >25 µg/mL
MIC (C. kefyr): >25 µg/mL
Activity A.f. (relative activity in relation to Ard1) (Aspergillus fumigatus): 4-8

DKLIGSCVWGAVNYTSNCNAECKRRGYKGGHCGSFLNVNCWCET (disulfide 7-32, 18-40, 22-42 (inferred)) [pEM35]
survival rate on post-infection day 8 ([1]; FIG. 8, 30 mg/kg/day (10 mg/kg/injection, 3 daily, 4 days), placebo 100% lethal day 8): 80%
survival rate on post-infection day 8 ([1]; FIG. 8, 90 mg/kg/day (30 mg/kg/injection, 3 daily, 4 days)): 90%
morbidity score on day 8 ([1]; FIG. 8, 30 and 90 mg/kg/day): 30/50
morbidity score until day 7 ([1]; FIG. 8, 30 and 90 mg/kg/day): above 40/50
activity compared with Ard1 ([1]; FIGS. 4-5, 10 mg/kg): more active than Ard1
mice alive on day 7 (out of 10) ([1]; FIGS. 4-5, 10 mg/kg): 9 mice
time of onset of the 1st death ([1]; FIGS. 4-5, 10 mg/kg): 7 days
morbidity score up to post-infection day 5 ([1]; FIGS. 6-7): 28/50
median mortality, post-infection day ([1]; FIGS. 6-7): 6 days
delay of onset of the 1st death ([1]; FIGS. 6-7): 1.5 days
MIC (Alternaria brassicola): >25 µg/mL
MIC (Neurospora crassa): <0.048 µg/mL
MIC (Cryptoccocus neoformans): 6.25 µg/mL
MIC (C. tropicalis): 1.56 µg/mL
MIC (C. krusei): 1.56 µg/mL
MIC (C. glabrata): >25 µg/mL
MIC (C. kefyr): >25 µg/mL
Activity A.f. (relative activity in relation to Ard1) (Aspergillus fumigatus): 2-4

DKLIGSCVWGAVNYTSNCNAECKRRGYKGGHCGSFLNVNCWCQT (disulfide 7-32, 18-40, 22-42 (inferred)) [pEM46]
effect on mouse survival relative to placebo treatment ([1]; FIGS. 6-7): does not significantly increase mouse survival
MIC (Alternaria brassicola): 25 µg/mL
MIC (Neurospora crassa): 0.195 µg/mL
MIC (Cryptoccocus neoformans): 6.25 µg/mL
MIC (C. tropicalis): 3.125 µg/mL
MIC (C. krusei): 1.56 µg/mL
MIC (C. glabrata): >25 µg/mL
MIC (C. kefyr): >25 µg/mL
Activity A.f. (relative activity in relation to Ard1) (Aspergillus fumigatus): 6-8

DKLIGSCVWGAVNYTSNCRAECKRRGYKGGHCGSFANVNCWCET (disulfide 7-32, 18-40, 22-42 (inferred)) [pEM51]
morbidity score up to post-infection day 5 ([1]; FIGS. 6-7): 11/50
median mortality, post-infection day ([1]; FIGS. 6-7): 5 days
delay of onset of the 1st death ([1]; FIGS. 6-7): 1.5 days
MIC (Alternaria brassicola): >25 µg/mL
MIC (Neurospora crassa): 0.195 µg/mL
MIC (Cryptoccocus neoformans): 1.56 µg/mL
MIC (C. tropicalis): 3.125 µg/mL
MIC (C. krusei): 1.56 µg/mL
MIC (C. glabrata): >25 µg/mL
MIC (C. kefyr): >25 µg/mL
Activity A.f. (relative activity in relation to Ard1) (Aspergillus fumigatus): 1
